The text below walks through data of patent publication US7371555B2, “Polypeptides having α-H-α-amino acid amide racemase activity and nucleic acids encoding the same” (DSM IP Assets B.V., priority 2002, dated 2008).

Residues, ends and D or L forms follow the SMILES beside them.

The test system of assay [1] is E. coli DH10B/pOA(1)PLV49B10 cells containing the α-H-α-amino acid amide racemase gene from Ochrobactrum anthropi IA. The assay can be described thus: Racemase activity test with DL-leucine amide and whole E. coli cells (Example 6). It is filed as cell-based. To be noted: Strain A. The procedure:
To determine the activity of E. coli/pOA(1)PLV49B10 and the E. coli control, the above-mentioned cell pellets were thawed and resuspended to a total volume of 1 ml with 50 mM HEPES-NaOH buffer, pH 7.7. Then, reaction mixtures of 10 ml each were prepared containing 50 mM HEPES-NaOH buffer (pH 7.7), 10 μM pyridoxal-5-phosphate (PLP), 2.5 wt % of D-leucine amide, if applicable 20 mM of EDTA to suppress the E. coli amidase activity, and 0.5 ml of the E. coli/pOA(1)PLV49B10 and E. coli DH10B/pZErO-GFPuv-wrong-orientation cell suspensions or water (for chemical blanks). Reactions were started by the addition of the cells. Reaction mixtures were incubated at 30° C. and 175 rpm. Directly after addition of the cells (t=0 hours) and after 27 and 43 hours samples were taken in which the reaction was stopped by removal of the cells via centrifugation followed by 0.22 μM filtration. Finally, the filtered samples were stored at −20° C. until analysis by chiral HPLC as described below: • column: Sumichiral OA5000 from Sumika (150×4.6 mm I.D., 5μ)+guard column • eluent: 85 v/v % 2 mM CuSO4+15 v/v % methanol • flow: 1.0 ml/min. • column temp.: 40° C. • inj. volume: 5 μl • detection: fluorescence detection after post-column reaction with o-phthalaldehyde and 2-mercaptoethanol (wavelength ex=338 nm and em>420 nm)
The E. coli DH10B/pOA(1)PLV49B10 and E. coli DH10B/pZErO-GFPuv-wrong-orientation cell suspensions from Example 5 (Preparation of the cells) were used. To determine their activity towards racemic DL-leucine amide, identical reaction mixtures were prepared as in Example 5, except that 2.5 wt % of DL-leucine amide was used, EDTA was omitted in all reactions, and the reactions were started with […] of the cell suspensions. Samples were taken directly after the start of the reactions (t=0 hours) and after 8 and 24 hours.

Assay [2] has as its system partially purified α-H-α-amino acid amide racemase from O. anthropi IA. In words: Substrate specificity of the partially purified racemase (Example 8). The format is biochemical, Ochrobactrum anthropi IA. Also on record: tested at 75 mM. To be noted: relative to the activity towards L-leucine amide; pH 8.0, 37° C. As for the experimental part:
The substrate specificity of the O. anthropi IA α-H-α-amino acid amide racemase was determined using the partially purified enzyme preparation obtained by the protocol described above. Reaction mixtures of 1 ml total volume were prepared by mixing 772 μl of 66.6 mM HEPES-NaOH, pH 8.0, 10 μl of 0.1 M dithiothreitol, 18 μl of a solution containing 20 mg/ml BSA and 1 mM pyridoxal-5-phosphate, and 100 μl of a 0.75 M substrate solution, pH 8.0. After equilibration for 5 minutes at 37° C., the reactions were started by the addition of 100 μl of the enzyme solution. Reaction mixtures were incubated at 37° C. without shaking. After regular time intervals, samples of 50 μl were taken and transferred into vials containing 950 μl of 1 M H3PO4 to stop the reaction. After sufficient dilution of the samples in 0.4 M borate buffer pH 9.4, the mixtures obtained were analyzed using HPLC to determine the exact concentrations of two amino acid amide enantiomers according to the method of Example 7.
Initial activity for the different substrates tested was calculated from the linear parts of the progress curves, in which the amount of the amino acid amide enantiomer formed (so with a stereochemistry opposite to the substrate molecule) was plotted against the reaction time.

For assay [3], the system named is α-H-α-amino acid amide racemase from Ochrobactrum anthropi IA. In words: Substrate specificity, CFE from E. coli TOP10/pKEC_AZAR_3 (Example 7). It is filed as biochemical. To be noted: relative to the activity towards D-leucine amide; 75 mM substrate, 20 mM EDTA, pH 8.0, 37° C. As for the experimental part:
Two pre-cultures of E. coli TOP10/pKEC_AZAR—3 (see Example 4) were prepared by inoculation of 2 erlenmeyer flasks with 100 ml of 2*TY medium (10 g/l Yeast extract, 16 g/l Tryptone, 5 g/l NaCl) containing 50 mg/l of kanamycin with 10 μl of a glycerol stock per flask. After overnight cultivation at 28° C. and 200 rpm, the pre-cultures were pooled, and subsequently used to inoculate 2 erlenmeyer flasks each containing 1 l of the same medium. Also these flasks were cultivated at 28° C. and 200 rpm for 16-18 h. Cells were harvested by centrifugation (15 min. at 6,200×g, 4° C.), washed with 20 mM HEPES-NaOH, pH 7.5, pooled, weighed, and resuspended in a solution containing 20 mM HEPES-NaOH, pH 7.5, 20 μM pyridoxal-5-phosphate, and 1.3 mM of dithiothreitol in a 1:3 ratio of wet weight cells to solution. Then, cells were disintegrated by 10 min. sonification with a Soniprep 150 of MSE operated at maximum amplitude using time intervals of 10 sec. (i.e., 10 sec. sonification, 10 sec. cooling) and cooling in ice/acetone. Particles were removed by centrifugation, after which sucrose was added to the cell free extract to a final concentration of 0.25 M. The resulting cell free extract (CFE) was stored in aliquots at −20° C. E. coli TOP10/pBAD/Myc-HisC (Invitrogen) cells were treated in exactly the same way and served as negative control.
The substrate specificity of the α-H-α-amino acid racemase from O. anthropi IA was determined by measuring the racemase activity of the above-mentioned CFE towards a number of enantiomerically pure amino acid amides. Each reaction mixture of 10 ml (including the CFE) contained 50 mM HEPES-NaOH, pH 8.0, 20 μM pyridoxal-5-phosphate, 0.4 mg/ml BSA, 1 mM dithiothreitol, 20 mM EDTA and 75 mM of one of the amino acid amides tested. Reactions were started by the addition of 1 ml of the thawed CFE of E. coli TOP10/pKEC_AZAR—3 or E. coli TOP10/pBAD/Myc-HisC (blank) and were incubated at 37° C. At regular time intervals samples of 1 ml were taken and transferred to vials containing 1 ml of 1M H3PO4 to stop the reaction. After sufficient dilution of the samples in 0.4 M borate buffer pH 9.4, the mixtures obtained were analyzed using HPLC to determine the exact concentrations of the two amino acid and two amino acid amide enantiomers according to the following method.
The initial activity for the different substrates tested was calculated from the linear parts of the progress curves, in which the conversion was plotted against the reaction time. Use of the linear part of the progress curves secured that only samples taken at time points at which the substrate concentration was still sufficiently high, were used for the calculations. The conversion was calculated by dividing the amount of amino acid and amino acid amide formed via the racemase reaction (so with the opposite stereochemistry compared to the substrate molecule) by the total amount of two amino acid enantiomers and the two amino acid amide enantiomers.

Assay [4] concerns lyophilized O. anthropi IA cells. The assay can be described thus: α-H-α-amino acid amide racemase activity of lyophilized O. anthropi IA cells. It is filed as biochemical, Ochrobactrum anthropi IA. As to conditions: approximately 72 hours at 40° C., 10 times diluted reaction mixture. The procedure: O. anthropi IA cells were cultivated in Medium A containing DL-α-amino-ε-caprolactam (2 g/l) as sole nitrogen source. After incubation at 28° C. and 200 rpm for three days (OD620 nm=4.7), cells were harvested by centrifugation, washed in 20 mM HEPES-NaOH buffer of pH 7.7 and lyophilized.
The assay mixture consisted of 10 mM HEPES-NaOH buffer (pH 7.7) containing toluene (2,5 v/v %), pyridoxal-5-phosphate (20 μM), D- or L-leucine amide (2.5 m %) and in some cases EDTA (20 mM). Per assay 150 mg of lyophilized cells were used. Chemical blanks (with the assay mixture without the O. anthropi IA cells) were used as a negative control. All reaction mixtures (including the blanks) were incubated for approximately 72 hours at 40° C. before the reaction was stopped by the addition of 9 volumes of 1 M H3PO4. Finally, the reaction mixtures were analyzed by HPLC to determine the concentrations of D- and L-leucine amide and of D- and L-leucine. o-Phthaldehyde in combination with D-3-mercapto-2-methylpropionic acid was used in this HPLC method as a chiral reagent for the enantioseparation of these amino compounds (Duchateau, et al., J. Chromatogr. (1992) 623:237-245).
In a number of reactions EDTA was added to inhibit L- and/or D-specific amidase(s) present in the O. anthropi IA cells.
Without EDTA, amidases convert the substrate and/or product α-H-α-amino acid amides into α-H-α-amino acids thereby preventing direct detection of the other α-H-α-amino acid amide enantiomer as racemization product. […] Formation of L-leucine from D-leucine amide could not be detected in the chemical blank.

Assay [5] deals with T1, α-amino-ε-caprolactam racemase from Achromobacter obae (Achromobacter obae, UniProt Q7M181).
T1 sequence (Q7M181 1-436): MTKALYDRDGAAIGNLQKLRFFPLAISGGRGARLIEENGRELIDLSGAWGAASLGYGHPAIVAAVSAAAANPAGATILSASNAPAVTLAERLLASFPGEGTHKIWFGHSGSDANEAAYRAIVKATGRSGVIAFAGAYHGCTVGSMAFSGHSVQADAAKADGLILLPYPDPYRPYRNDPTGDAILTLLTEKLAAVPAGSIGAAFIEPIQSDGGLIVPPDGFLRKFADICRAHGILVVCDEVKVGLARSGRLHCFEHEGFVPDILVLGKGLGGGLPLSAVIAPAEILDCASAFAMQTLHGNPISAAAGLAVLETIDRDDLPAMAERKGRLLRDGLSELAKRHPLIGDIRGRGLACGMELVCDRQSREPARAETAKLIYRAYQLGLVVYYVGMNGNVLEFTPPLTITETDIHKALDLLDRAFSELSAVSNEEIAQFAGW
To be noted: even when an excess amount of enzyme was used; cited from earlier work.

Take `CC(C)CC(N)C(N)=O` (racemic) [DL-leucine amide]: in assay [1] (incubation time 0 h), the D-leucine is 0.001 wt %, the D-leucine amide came out at 1.19 wt %, the L-leucine stood at 0.003 wt % and the L-leucine amide was 1.25 wt %. Besides, in assay [1] (incubation time 8 h), the D-leucine is 0.004 wt %, the D-leucine amide is on record as 1.24 wt %, the L-leucine was 1.45 wt % and the L-leucine amide worked out at 0.33 wt %. In assay [1] (incubation time 24 h), this compound had a D-leucine of 0.028 wt %, a D-leucine amide of 0.43 wt %, a L-leucine of 2.25 wt % and a L-leucine amide of 0.14 wt %.

Turning to `NC(=O)[C@H](N)CCCC1OCCO1` [D-2-amino-5-[1,3]dioxolan-2-yl-pentanoicacid amide], the Rel. initial activity in assay [2] was 9.1%.

On to `C[C@@H](N)C(N)=O` [D-alanine amide], for which the Rel. initial activity in assay [3] turned out to be 85%.

On to `NC(=O)[C@H](N)c1ccccc1` [D-phenylglycineamide], for which the Rel. initial activity in assay [2] is 9.1%.

Regarding `C[C@H](N)C(N)=O` [L-alanine amide], the Rel. initial activity in assay [2] was determined as 350%.

With `CC(C)C[C@H](N)C(N)=O` [L-leucine amide], in assay [4] (with EDTA (20 mM)), the D-leucine stood at 0.003 m %, the D-leucine amide was 0.021 m %, the L-leucine is reported as 0.058 m % and the L-leucine amide was found to be 0.15 m %. Further, in assay [4] (without EDTA), the D-leucine amounted to 0.001 m %, the D-leucine amide was under 0.001 m %, the L-leucine amounted to 0.21 m % and the L-leucine amide is listed as under 0.001 m %. Besides, the “α-H-α-amino acid amide racemase activity” value in assay [5] is recorded as “no α-H-α-amino acid amide racemase activity was found”. In assay [2], the Rel. initial activity is on record as 100%.

As for `CC(C)C[C@H](N)C(=O)N[C@@H](C)C(=O)O` [L-leucyl-L-alanine] (H-Leu-Ala-OH), the “α-H-α-amino acid amide racemase activity” value in assay [5] is “no α-H-α-amino acid amide racemase activity was found”.

`CC(C)C[C@H](N)C(=O)NCC(=O)O` [L-leucyl-glycine] (H-Leu-Gly-OH): the “α-H-α-amino acid amide racemase activity” value in assay [5] is listed as “no α-H-α-amino acid amide racemase activity was found”.

Regarding `NC(=O)[C@@H](N)Cc1ccccc1` [L-phenylalanineamide], in assay [2], the Rel. initial activity is reported as 4.5%.

In the case of `NC(=O)[C@@H](N)CO` [L-serine amide], in assay [3], the Rel. initial activity is 83%.

Turning to `NC(=O)[C@@H](N)Cc1c[nH]c2ccccc12` [L-tryptophan amide], the “α-H-α-amino acid amide racemase activity” value in assay [5] is on record as “no α-H-α-amino acid amide racemase activity was found”.

On to `CC(C)[C@H](N)C(N)=O` [L-valine amide], for which the Rel. initial activity in assay [2] amounted to 4.5%.

Take `CC(C)[C@H](N)C(=O)N[C@@H](C)C(=O)O` [L-valyl-L-alanine] (H-Val-Ala-OH): the “α-H-α-amino acid amide racemase activity” value in assay [5] is given as “no α-H-α-amino acid amide racemase activity was found”.

Take `CC(C)[C@H](N)C(=O)NCC(=O)O` [L-valyl-glycine] (H-Val-Gly-OH): in assay [5], the “α-H-α-amino acid amide racemase activity” value is reported as “no α-H-α-amino acid amide racemase activity was found”.

Turning to `CC[C@H](C)[C@H](N)C(N)=O` [LL-isoleucine amide], the Rel. initial activity in assay [2] is listed as 4.5%.

`C[C@H](O)[C@H](N)C(N)=O` [LL-threonine amide]: the Rel. initial activity in assay [2] came out at 100%.
